Laboratory results taken from article PMC6753678, “Fueling Open Innovation for Malaria Transmission-Blocking Drugs: Hundreds of Molecules Targeting Early Parasite Mosquito Stages” (Frontiers in Microbiology, 2019).
Read-outs that look alike come from different tables or passages of the source.

Columns and labels:
HepG2 cells [1] = assay: HepG2 cytotoxicity assay; settings: HepG2 cytotoxicity unified across the three screens
How it was run: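 HepG2 cells, 2,500 per well in MEM with 10% FBS and 1% NEAA, exposed to compounds for 48 h at 37°C, 5% CO2. Viability read by fluorescence; percent inhibition relative to 50 μM doxorubicin and DMSO controls.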

[2] = test system: P. falciparum late stage (stages IV-V) gametocytes; parameters: method as in Almela et al 2016; settings: TCAMS screen comparison; ref Almela et al 2016; read-out: Pf GCT ATP IC50; cited from earlier work
[3] = test system: P. falciparum female gametocytes; parameters: method as in Miguel-Blanco et al 2017; settings: TCAMS screen comparison; ref Miguel-Blanco et al 2017; read-out: Pf FGAA IC50; cited from earlier work
HepG2 cells [4] = settings: cited from earlier work
[5] = test system: P. falciparum female gametocytes; assay: P. falciparum female gametogenesis assay (Pf FGAA); settings: 1: YES; 0: NO
[6] = test system: P. falciparum late stage (stages IV-V) gametocytes; assay: P. falciparum late stage gametocyte ATP depletion assay (Pf GC-ATP); settings: 1: YES; 0: NO
[7] = value reported with the Pf FGAA screen, ref Miguel-Blanco et al 2017
[8] = value reported with the Pf GCT ATP screen, ref Almela et al 2016

## FC(F)(F)c1ccc2[nH]c(-c3ccc(-c4ccc(CNCCN5CCNCC5)cc4)s3)nc2c1.O=C(O)C(F)(F)F [TCMDC-132862]
HepG2 cells [1]
  Unified cytotox: 9.89 µM
[2]
  IC50: 1290 nM
[3]
  IC50: 3000 nM
HepG2 cells [4]; [7]
  HepG2 cytoxicity: 12.88 µM
HepG2 cells [4]; [8]
  HepG2 cytoxicity: 6.9 µM
[5]
  Is compound selective in assay? Pf FGAA active?: 0 (0: NO)
[6]
  Is compound selective in assay? Pf GC-ATP active?: 0 (0: NO)

## COc1ccc2c(OC)c(CNCCCCCCNCc3ccc4cc(OC)ccc4c3OC)ccc2c1.CS(=O)(=O)O [TCMDC-137953]
HepG2 cells [1]
  Unified cytotox: 2.66 µM
[2]
  IC50: 1540 nM
[3]
  IC50: 1000 nM
HepG2 cells [4]; [7]
  HepG2 cytoxicity: 2.11 µM
HepG2 cells [4]; [8]
  HepG2 cytoxicity: 3.2 µM
[5]
  Is compound selective in assay? Pf FGAA active?: 0 (0: NO)
[6]
  Is compound selective in assay? Pf GC-ATP active?: 0 (0: NO)

## COc1ccc(CNC2Cc3ccccc3C2)cc1-c1ccc(S(=O)(=O)NCCN2CCCC2)cc1.O=C(O)C(F)(F)F [TCMDC-132248]
HepG2 cells [1]
  Unified cytotox: 7.08 µM
[2]
  IC50: 1380 nM
[3]
  IC50: 1990 nM
HepG2 cells [4]; [7]
  HepG2 cytoxicity: 5.89 µM
HepG2 cells [4]; [8]
  HepG2 cytoxicity: 8.28 µM
[5]
  Is compound selective in assay? Pf FGAA active?: 0 (0: NO)
[6]
  Is compound selective in assay? Pf GC-ATP active?: 0 (0: NO)

## Cc1ccccc1OCC(O)CNC1CCC(NCC(O)COc2ccccc2C)CC1 (centres unmarked) [TCMDC-125142]
HepG2 cells [1]
  Unified cytotox: 3.93 µM
[2]
  IC50: 140 nM
[3]
  IC50: 1110 nM
HepG2 cells [4]; [7]
  HepG2 cytoxicity: 4.07 µM
HepG2 cells [4]; [8]
  HepG2 cytoxicity: 3.78 µM
[5]
  Is compound selective in assay? Pf FGAA active?: 0 (0: NO)
[6]
  Is compound selective in assay? Pf GC-ATP active?: 1 (1: YES)

## COc1c(C2CCN(CCN3CCC(CNC(=O)c4ccc(-c5ccc(C#N)cc5)cc4)CC3)CC2)ccc2c1CCCC2 [TCMDC-138859]
HepG2 cells [1]
  Unified cytotox: 3.36 µM
[2]
  IC50: 1170 nM
[3]
  IC50: 1460 nM
HepG2 cells [4]; [7]
  HepG2 cytoxicity: 3.43 µM
HepG2 cells [4]; [8]
  HepG2 cytoxicity: 3.3 µM
[5]
  Is compound selective in assay? Pf FGAA active?: 0 (0: NO)
[6]
  Is compound selective in assay? Pf GC-ATP active?: 0 (0: NO)

## COc1ccc(CNC2Cc3ccccc3C2)cc1-c1ccc(OC)c(S(=O)(=O)NCCN2CCCC2)c1.O=C(O)C(F)(F)F [TCMDC-132251]
HepG2 cells [1]
  Unified cytotox: 11.89 µM
[2]
  IC50: 1140 nM
[3]
  IC50: 2700 nM
HepG2 cells [4]; [7]
  HepG2 cytoxicity: 7.17 µM
HepG2 cells [4]; [8]
  HepG2 cytoxicity: 16.6 µM
[5]
  Is compound selective in assay? Pf FGAA active?: 0 (0: NO)
[6]
  Is compound selective in assay? Pf GC-ATP active?: 1 (1: YES)

## SC(=Nc1ccc(Cl)c(Cl)c1)NN=Cc1ccccn1 [TCMDC-125522]
HepG2 cells [1]
  Unified cytotox: 6.28 µM
[2]
  IC50: 70 nM
[3]
  IC50: 80 nM
HepG2 cells [4]; [7]
  HepG2 cytoxicity: 3.47 µM
HepG2 cells [4]; [8]
  HepG2 cytoxicity: 9.1 µM
[5]
  Is compound selective in assay? Pf FGAA active?: 1 (1: YES)
[6]
  Is compound selective in assay? Pf GC-ATP active?: 1 (1: YES)

## CCN(CC)CCN(Cc1ccc(-c2ccc(C(F)(F)F)cc2)cc1)C(=O)Cn1cc(Cc2cnn(C)c2)c(=O)nc1/C=C/c1cccc(F)c1F [TCMDC-140964]
HepG2 cells [1]
  Unified cytotox: 12.05 µM
[2]
  IC50: 170 nM
[3]
  IC50: 870 nM
HepG2 cells [4]; [7]
  HepG2 cytoxicity: 9.69 µM
HepG2 cells [4]; [8]
  HepG2 cytoxicity: 14.4 µM
[5]
  Is compound selective in assay? Pf FGAA active?: 1 (1: YES)
[6]
  Is compound selective in assay? Pf GC-ATP active?: 1 (1: YES)

## CCn1c(Sc2ccc([N+](=O)[O-])c(C#N)c2)nnc1-c1cccc(Cl)c1 [TCMDC-135234]
HepG2 cells [1]
  Unified cytotox: 18.80 µM
[2]
  IC50: 3040 nM
[3]
  IC50: 1340 nM
HepG2 cells [4]; [7]
  HepG2 cytoxicity: 18.80 µM
HepG2 cells [4]; [8]
  HepG2 cytoxicity: >25 µM
[5]
  Is compound selective in assay? Pf FGAA active?: 1 (1: YES)
[6]
  Is compound selective in assay? Pf GC-ATP active?: 0 (0: NO)

## CCCCCCCCN1CCN(CCCCCCNc2c3ccccc3nc3ccccc23)CC1.Cl [TCMDC-138015]
HepG2 cells [1]
  Unified cytotox: 3.23 µM
[2]
  IC50: 250 nM
[3]
  IC50: 640 nM
HepG2 cells [4]; [7]
  HepG2 cytoxicity: 3.35 µM
HepG2 cells [4]; [8]
  HepG2 cytoxicity: 3.1 µM
[5]
  Is compound selective in assay? Pf FGAA active?: 0 (0: NO)
[6]
  Is compound selective in assay? Pf GC-ATP active?: 1 (1: YES)

## Br.Oc1ccc(CCNCCCCCCNCCc2ccc(Cl)c3ccccc23)cc1O [TCMDC-131271]
HepG2 cells [1]
  Unified cytotox: 12.36 µM
[2]
  IC50: 530 nM
[3]
  IC50: 2380 nM
HepG2 cells [4]; [7]
  HepG2 cytoxicity: 11.22 µM
HepG2 cells [4]; [8]
  HepG2 cytoxicity: 13.5 µM
[5]
  Is compound selective in assay? Pf FGAA active?: 0 (0: NO)
[6]
  Is compound selective in assay? Pf GC-ATP active?: 1 (1: YES)

## FC(F)(F)c1ccc2[nH]c(-c3cccc(-c4ccc(CNCCN5CCNCC5)cc4)c3)nc2c1.O=C(O)C(F)(F)F [TCMDC-132872]
HepG2 cells [1]
  Unified cytotox: 10.72 µM
[2]
  IC50: 860 nM
[3]
  IC50: 1790 nM
HepG2 cells [4]; [7]
  HepG2 cytoxicity: 8.81 µM
HepG2 cells [4]; [8]
  HepG2 cytoxicity: 12.62 µM
[5]
  Is compound selective in assay? Pf FGAA active?: 0 (0: NO)
[6]
  Is compound selective in assay? Pf GC-ATP active?: 1 (1: YES)

## COc1cc2c(cc1CCNCCCCNCCc1cc3c(cc1OC)CCCC3)CCCC2.CS(=O)(=O)O [TCMDC-137319]
HepG2 cells [1]
  Unified cytotox: 1.86 µM
[2]
  IC50: 80 nM
[3]
  IC50: 890 nM
HepG2 cells [4]; [7]
  HepG2 cytoxicity: 1.86 µM
HepG2 cells [4]; [8]
  HepG2 cytoxicity: <1.56 µM
[5]
  Is compound selective in assay? Pf FGAA active?: 0 (0: NO)
[6]
  Is compound selective in assay? Pf GC-ATP active?: 1 (1: YES)

## Br.C/C=C/C=C/C1=NCCc2cc(OCCC)ccc21 [TCMDC-137442]
HepG2 cells [1]
  Unified cytotox: 18.64 µM
[2]
  IC50: 750 nM
[3]
  IC50: 1300 nM
HepG2 cells [4]; [7]
  HepG2 cytoxicity: 18.29 µM
HepG2 cells [4]; [8]
  HepG2 cytoxicity: 19 µM
[5]
  Is compound selective in assay? Pf FGAA active?: 1 (1: YES)
[6]
  Is compound selective in assay? Pf GC-ATP active?: 1 (1: YES)

## COc1cc2nc(N3CCC(CNCc4ccc(-c5ccc(C(F)(F)F)cc5)cc4)CC3)nc(N)c2cc1OC [TCMDC-138757]
HepG2 cells [1]
  Unified cytotox: 1.43 µM
[2]
  IC50: 17.7 nM
[3]
  IC50: 100 nM
HepG2 cells [4]; [7]
  HepG2 cytoxicity: 1.43 µM
HepG2 cells [4]; [8]
  HepG2 cytoxicity: <1.56 µM
[5]
  Is compound selective in assay? Pf FGAA active?: 1 (1: YES)
[6]
  Is compound selective in assay? Pf GC-ATP active?: 1 (1: YES)

## CCCCN(CCCC)/C(=N/C(=N)NCc1ccc(Cl)c(Cl)c1)NCCCCCCN/C(=N\C(=N)NCc1ccc(Cl)c(Cl)c1)N(CCCC)CCCC [TCMDC-131821]
HepG2 cells [1]
  Unified cytotox: 13.18 µM
[2]
  IC50: 620 nM
[3]
  IC50: 2510 nM
HepG2 cells [4]; [7]
  HepG2 cytoxicity: 13.96 µM
HepG2 cells [4]; [8]
  HepG2 cytoxicity: 12.4 µM
[5]
  Is compound selective in assay? Pf FGAA active?: 0 (0: NO)
[6]
  Is compound selective in assay? Pf GC-ATP active?: 1 (1: YES)

## C[C@H](Cc1ccc(Oc2ccc(C[C@@H](C)NC[C@H](O)c3cccc(Cl)c3)cc2)cc1)NC[C@H](O)c1cccc(Cl)c1.Cl [TCMDC-131560]
HepG2 cells [1]
  Unified cytotox: 1.98 µM
[2]
  IC50: 270 nM
[3]
  IC50: 720 nM
HepG2 cells [4]; [7]
  HepG2 cytoxicity: 2.04 µM
HepG2 cells [4]; [8]
  HepG2 cytoxicity: 1.91 µM
[5]
  Is compound selective in assay? Pf FGAA active?: 0 (0: NO)
[6]
  Is compound selective in assay? Pf GC-ATP active?: 0 (0: NO)

## c1cc(C2=N[C@H]3CCCC[C@@H]3N2)ccc1OCCCOc1ccc(C2=N[C@@H]3CCCC[C@H]3N2)cc1 [TCMDC-137803]
HepG2 cells [1]
  Unified cytotox: 38.02 µM
[2]
  IC50: 470 nM
[3]
  IC50: 11500 nM
HepG2 cells [4]; [7]
  HepG2 cytoxicity: 38.02 µM
HepG2 cells [4]; [8]
  HepG2 cytoxicity: >25 µM
[5]
  Is compound selective in assay? Pf FGAA active?: 0 (0: NO)
[6]
  Is compound selective in assay? Pf GC-ATP active?: 1 (1: YES)

## COc1ccc(Nc2nccc(-c3ccc4ccnc(NCCCCN)c4c3)n2)cc1 [TCMDC-136642]
HepG2 cells [1]
  Unified cytotox: 14.29 µM
[2]
  IC50: 330 nM
[3]
  IC50: 1510 nM
HepG2 cells [4]; [7]
  HepG2 cytoxicity: 14.29 µM
HepG2 cells [4]; [8]
  HepG2 cytoxicity: >25 µM
[5]
  Is compound selective in assay? Pf FGAA active?: 0 (0: NO)
[6]
  Is compound selective in assay? Pf GC-ATP active?: 1 (1: YES)

## Cc1n[nH]c2ccc(-c3ccc4nccc(N5CCC(N)CC5)c4c3)cc12.Cl [TCMDC-134315]
HepG2 cells [1]
  Unified cytotox: 9.27 µM
[2]
  IC50: 380 nM
[3]
  IC50: 2450 nM
HepG2 cells [4]; [7]
  HepG2 cytoxicity: 6.88 µM
HepG2 cells [4]; [8]
  HepG2 cytoxicity: 11.66 µM
[5]
  Is compound selective in assay? Pf FGAA active?: 0 (0: NO)
[6]
  Is compound selective in assay? Pf GC-ATP active?: 1 (1: YES)
